The record followed here is patent publication EP0496162A2, “Peptide inhibitors of RAS-GAP interaction” (MERCK & CO. INC., priority 1990, dated 1992).

No end group written: not given here.

One data set concerns the target T1, Ras-GAP interaction (Bos taurus, UniProt P09851).
T1 construct: made in house; host or cells: GAP: E. coli JM109 (plasmid pYO); Ha-Ras: E. coli RRllaci^q (plasmid pRas[Gly12 Ala59])
T1 sequence (P09851 1-1044): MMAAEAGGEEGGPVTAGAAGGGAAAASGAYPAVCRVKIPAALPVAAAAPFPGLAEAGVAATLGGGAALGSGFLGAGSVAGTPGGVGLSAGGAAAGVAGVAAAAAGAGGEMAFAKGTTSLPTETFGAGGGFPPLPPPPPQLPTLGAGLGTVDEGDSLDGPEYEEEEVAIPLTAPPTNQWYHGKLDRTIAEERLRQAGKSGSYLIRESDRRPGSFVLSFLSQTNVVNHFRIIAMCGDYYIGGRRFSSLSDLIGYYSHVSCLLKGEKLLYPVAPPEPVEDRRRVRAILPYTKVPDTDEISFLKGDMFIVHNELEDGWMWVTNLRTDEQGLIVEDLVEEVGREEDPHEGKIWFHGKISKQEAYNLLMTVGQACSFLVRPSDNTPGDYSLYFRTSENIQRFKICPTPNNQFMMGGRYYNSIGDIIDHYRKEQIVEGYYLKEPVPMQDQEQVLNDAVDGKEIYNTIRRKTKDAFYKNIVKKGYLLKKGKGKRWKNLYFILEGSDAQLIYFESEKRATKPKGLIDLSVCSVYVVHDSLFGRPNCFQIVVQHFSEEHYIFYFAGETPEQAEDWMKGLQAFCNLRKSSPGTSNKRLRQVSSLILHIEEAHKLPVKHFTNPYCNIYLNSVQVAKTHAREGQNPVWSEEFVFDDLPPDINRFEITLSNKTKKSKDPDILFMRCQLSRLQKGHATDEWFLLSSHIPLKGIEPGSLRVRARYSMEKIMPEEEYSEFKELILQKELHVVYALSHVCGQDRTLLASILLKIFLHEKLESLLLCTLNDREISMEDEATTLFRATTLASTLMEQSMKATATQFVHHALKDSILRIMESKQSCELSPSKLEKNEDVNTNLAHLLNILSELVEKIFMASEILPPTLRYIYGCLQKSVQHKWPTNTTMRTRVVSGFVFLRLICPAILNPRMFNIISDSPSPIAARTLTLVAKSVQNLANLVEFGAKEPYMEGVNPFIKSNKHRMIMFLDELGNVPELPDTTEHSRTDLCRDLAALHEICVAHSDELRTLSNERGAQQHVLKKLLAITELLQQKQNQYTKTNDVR
The data set can be described thus: Ras-GAP interaction inhibition assay (GAP-stimulated Ras GTPase, charcoal adsorption). Format: biochemical, bovine. Conditions: concentration of peptide required to reduce GAP stimulated Ras-GTP hydrolysis by 50%; 10 fmol GAP, 240 fmol Ha ras p21-GTP, 4 minutes at 24°C. The method, then:
The activity of the synthetic peptides of the present invention, as inhibitors of the interaction of ras with GAP was determined in an assay which measures GAP dependent, Ras GTPase activity. Bovine GAP was either purified from fresh bovine brains or recombinantly produced in E. coli. It is understood that the methods of the present invention may utilize either the recombinant full length GAP or the bovine brain derived GAP. In addition, GAP from other species, such as human and mouse, may be substituted for bovine GAP since they share about 95% amino acid homology. Truncated recombinant forms of GAP are also suitable for use in the Ras-GAP interaction assay [Marshall, M.S., et al., (1989), EMBO J., 8, pp1105-1110]. However, for the screening of synthetic peptides for their ability to block the Ras-GAP interaction, the recombinant, full length GAP is preferred.
The Ras protein utilized in the Ras-GAP GTPase assay of the present invention is Harvey ras (Ha-ras). It is understood that other forms of Ras protein are suitable for use in the present invention. Other suitable forms of Ras protein include, but are not limited to, Kirsten Ras, yeast S. cerevisiae RAS, and N-Ras. Furthermore, it is readily apparent to those skilled in the art that any form of Ras protein which is capable of interacting with GAP is suitable for use in the Ras-GAP GTPase assay.
Ras GTPase activity was measured by the charcoal adsorption procedure. Each 50 µL reaction contained 10 fmol purified GAP, 240 fmol Ha ras p21-[γ ³²P] GTP and 1 mg/mL BSA in buffer D. Varying amounts of the competing peptides were added as indicated. Prewarmed reactions (24°C) were initiated by the addition of GAP, then incubated for 4 minutes at 24°C. The reactions were terminated by the addition of 5 volumes of ice cold 5% activated charcoal (Sigma: HCl washed) in 50 mM NaH₂PO₄. GTPase activity was quantitated by measuring the free ³²P-orthophosphate in the cleared supernatant after centrifugation of the charcoal mix. GAP-stimulated Ras GTPase activity in the absence of competitors was 40-60 fmol Ras-GTP hydrolyzed; the 100% control value. In the absence of GAP, GTP hydrolysis was not detectable during the incubation period of the assay. Inhibitors of this assay block GAP-stimulated Ras GTPase without impairing intrinsic Ras GTPase, assayed in the absence of GAP following incubation at 24°C for one hour.
(§1) Ras peptides were dissolved in either 100% dimethyl formamide (DMF, American Burdick and Jackson) or 100% dimethyl sulfoxide (DMSO, Fluka UV-spectroscopy grade) at a calculated peptide concentration of 1-4 mM. Following 1 minute in a Sonicor SC-200 bath sonicator at room temperature, the peptide solutions were vortexed, and then centrifuged for 5 minutes at room temperature in an Eppendorf microfuge to remove any undissolved material. 20 µL of the cleared peptide solutions were then added to 80 µL of Buffer D in a dilution series covering a range of peptide concentrations from 0.02 µM up to the maximum solubility limit for each peptide. In each dilution, the solvent concentration was maintained at 20%. These peptides solutions were then centrifuged for 5 minutes at room temperature at 10,000 x g, and the cleared supernatants were divided into 2 parts. One part of each cleared peptide dilution was used in a GAP competition assay: 40 µL was added to a 5 µL solution containing 0.1 mg/mL BSA plus 240 fmol Ha-ras p21-[γ-³²P]GTP. Reactions were initiated upon addition of 5 µL of diluted GAP (10 fmol), and analyzed as described above.

Data set [1] is classed as physicochemical. The procedure:
as §1
The other portion of the cleared peptide solution was measured spectrophotometrically to determine solubility and concentration of the peptides. Extinction coefficients were determined by measuring the absorbance at 277 nm of 2 peptides whose exact concentrations were quantitated by amino acid analysis. The extinction coefficients for peptide Ras 17-37 dissolved in buffer D/20% DMF or peptide Ras 91-103 (SEQ ID NO:14)dissolved in water/20% DMSO, were 2580 cm⁻¹M⁻¹ and 2230 cm⁻¹ M⁻¹, respectively. These values were used to determine the exact concentration for each peptide used at each point in the competition assay. In addition, peptide solubility was confirmed by comparing the light scattering at 600 nm for each peptide solution measured before and after centrifugation. Only concentrations reflecting 100% solubility were used in the dose response curves, and the maximum concentration used for each peptide competitor indicates the limit of solubility for that peptide.

For `CC[C@H](C)[C@H](NC(=O)[C@H](CC(C)C)NC(=O)[C@H](CCC(N)=O)NC(=O)[C@@H](NC(=O)[C@@H](NC(=O)[C@H](CC(C)C)NC(=O)[C@H](C)NC(=O)[C@@H](N)CO)[C@@H](C)O)[C@@H](C)CC)C(=O)N[C@@H](CCC(N)=O)C(=O)N[C@@H](CC(N)=O)C(=O)N[C@@H](Cc1c[nH]cn1)C(=O)N[C@@H](Cc1ccccc1)C(=O)N[C@H](C(=O)N[C@@H](CC(=O)O)C(=O)N[C@@H](CCC(=O)O)C(=O)N[C@@H](Cc1ccc(O)cc1)C(=O)O)C(C)C` [Ras 17-32], the IC50 at Ras-GAP interaction was found to be 900 nM. Also, the “Maximum Solubility” value in data set [1] is 19 µM.
Take LIQNHFVDEYDPTIE [Ras 23-37]: the “IC50*” value on Ras-GAP interaction is “no inhibition”. In addition, the “Maximum Solubility” value in data set [1] was found to be 250 µM.
SALTIQLIQNHFVDEYDPTIE [Ras 17-37] returned an IC50 against Ras-GAP interaction of 3600 nM. Further, in data set [1], the “Maximum Solubility” value came out at 40 µM.
